Source: the CheMixHub viscosity set

Assay: xn = mol fraction of the nth substance listed

[Cl-].[NH4+] + O
viscosity [mPa·s]
Conditions	298.15 K	308.15 K	313.15 K	323.15 K
101.3 kPa, x1 = 0.00112	–	0.7299	0.6608	0.556
101.3 kPa, x1 = 0.002247	–	0.7289	0.6597	0.5555
101.3 kPa, x1 = 0.004484	–	0.7281	0.659	0.5551
101.3 kPa, x1 = 0.008927	–	0.7279	0.6586	0.5547
101.3 kPa, x1 = 0.0177	–	0.7315	0.661	0.557
101.33 kPa, x1 = 0.000905	–	0.7306	0.6614	0.5565
101.33 kPa, x1 = 0.002718	–	0.7295	0.6608	0.556
101.33 kPa, x1 = 0.00453	–	0.7288	0.6603	0.5556
101.33 kPa, x1 = 0.006344	–	0.7285	0.6598	0.5544
101.33 kPa, x1 = 0.008159	–	0.731	0.662	0.557
101.33 kPa, x1 = 0.1165	1.094	–	–	–

CCNCC + O=C1CCCCC1
298.15 K, 101 kPa
Conditions	viscosity [mPa·s]
x2 = 0.076	0.296
x2 = 0.157	0.338
x2 = 0.2421	0.415
x2 = 0.3319	0.502
x2 = 0.427	0.639
x2 = 0.5278	0.79
x2 = 0.6349	0.97
x2 = 0.7488	1.224
x2 = 0.8702	1.54

COCCOCCOCCO + O=C1CCCN1
298.15 K, 101 kPa
Conditions	viscosity [mPa·s]
x1 = 0.0024	14.16
x1 = 0.0071	13.98
x1 = 0.0099	13.92
x1 = 0.0137	13.86
x1 = 0.026	13.66
x1 = 0.0397	13.43
x1 = 0.0605	13.11
x1 = 0.085	12.74
x1 = 0.1404	12.01
x1 = 0.1689	11.65
x1 = 0.2026	11.29
x1 = 0.24	10.92
x1 = 0.2913	10.46
x1 = 0.3429	10.04
x1 = 0.3916	9.679
x1 = 0.4401	9.334
x1 = 0.4897	9.091
x1 = 0.5674	8.598
x1 = 0.6133	8.347
x1 = 0.6641	8.188
x1 = 0.7172	7.889
x1 = 0.7708	7.642
x1 = 0.8177	7.419
x1 = 0.8659	7.145
x1 = 0.9053	6.89
x1 = 0.9402	6.677
x1 = 0.9788	6.466
x2 = 0.009	6.323
